In patent publication US20210401776A1, “METHOD OF TREATING […] SYNDROMES USING FENFLURAMINE ENANTIOMERS” (ZOGENIX INTERNATIONAL LIMITED, priority 2018, published 2021):
“Also recorded” adds a separate entry of the source.

Assays:
[1] = tested on: dizocilpine-treated mice; test: dizocilpine-induced learning deficits, statements covering both tests (Y-maze and passive avoidance); assay type: in vivo, Male Swiss OF-1 mice
Experimental: Experiments were conducted to determine the dose-response effects of fenfluramine (FEN) and norfenfluramine (NOR), racemate and (+)- and (−)-isomers, in an in vivo mouse model; the dizocilpine-induced amnesia model (described below) is used to test responses to drugs acting at the sigma-1 receptor (S1R) (Maurice et al., 1994a,b; Maurice, et al., 1998, Neuroscience 83:413-428).
The drugs were administered intraperitoneally (“ip” or “IP”) with dizocilpine (0.15 mg/kg) and tested in the spontaneous alternation test on day 1 and in the passive avoidance test on days 2-3.
The apparatus consisted of a 2-compartment box, with one illuminated with white polyvinylchloride (PVC) walls and a transparent cover (15×20×15 cm high), one with black polyvinylchloride walls and cover (15×20×15 cm high), and a grid floor. A guillotine door separated each compartment. A 60 W lamp was positioned 40 cm above the apparatus lit the white compartment during the experimental period. Scrambled foot shocks (0.3 mA for 3 s) were delivered to the grid floor using a shock generator scrambler (Lafayette Instruments, Lafayette, Mass., USA). The guillotine door was initially closed during the training session. Each mouse was placed into the white compartment. After 5 s, the door was raised. When the mouse entered the darkened compartment and placed all its paws on the grid floor, the door was gently closed and the 3-scrambled foot shock was delivered for 3 s. The step-through latency, i.e., the latency spent to enter the dark compartment, and the level of sensitivity to the shock were recorded. The latter was evaluated as: 0=no sign; 1=flinching reactions; 2=flinching and vocalization reactions. The retention test was carried out 24 h after training. Each mouse was placed again into the white compartment. After 5 s, the door was raised. The step-through latency was recorded up to 300 s. Animals entered the darkened compartment or were gently pushed into it and the escape latency, i.e., the time spent to return into the white compartment, was also measured up to 300 s. Results were expressed as median and interquartile (25%-75%) range.
The Y-maze is made of grey PVC. Each arm is 40 cm long, 13 cm high, 3 cm wide at the bottom, 10 cm wide at the top, and converged at an equal angle. Each mouse was placed at the end of one arm and allowed to move freely through the maze during an 8-min session. The series of arm entries, including possible returns into the same arm, were checked visually. An alternation was defined as entries into all three arms on consecutive occasions. The number of maximum alternations was therefore the total number of arm entries minus two and the percentage of alternation was calculated as: actual alternations/maximum alternations)×100. Parameters included the percentage of alternation (memory index) and total number of arm entries (exploration index).

[2] = tested on: dizocilpine-treated mice; test: spontaneous alternation in the Y-maze, dizocilpine-induced amnesia model; assay type: in vivo, Male Swiss OF-1 mice; conditions: Table 4 Y Maze
[3] = tested on: dizocilpine-treated mice; test: step-through passive avoidance, dizocilpine-induced amnesia model; assay type: in vivo, Male Swiss OF-1 mice; conditions: Table 4 StepThrough/PassiveAvoidance
[4] = tested on: WT scn1Lab+/+ zebrafish larvae; test: maximal tolerated concentration (MTC); assay type: in vivo, zebrafish (Danio rerio); conditions: no signs of toxicity in 12 out of 12 larvae within 48 hours of exposure
Experimental: To evaluate the maximal tolerated concentration (MTC) of each compound, 6 dpf-old WT scn1Lab+^+/+ zebrafish larvae were incubated in a 96-well plate (tissue culture plate, flat bottom, FALCON®, USA) with different concentrations of compound or VHC at 28° C. on a 14/10 hour light/dark cycle under standard aquaculture conditions (medium is replenished daily). Each larva was individually checked under the microscope during a period of 48 hours for the following signs of toxicity: decreased or no touch response upon a light touch of the tail, loss of posture, body deformation, edema, changes in heart rate or circulation and death. […] MTC was determined as 100 micromolar (μM) for (+)-fenfluramine and both norfenfluramine enantiomers. A MTC of 50 μM was determined for (−)-fenfluramine.

[5] = tested on: homozygous scn1Lab−/− mutants; test: zebrafish locomotor assay (total distance in large movements, lardist); assay type: in vivo, zebrafish (Danio rerio); conditions: scn1Lab−/− mutants, fixed concentration, FIG. 3
Text: (Baraban et al, 2013). Additional phenotypes of these mutants include: abnormal optokinetic response (OKR; 5 dpf); darkened pigmentation; death by 14 dpf; spontaneous seizure-like activity; abnormal (forebrain electrographic activity (3-7 dpf); seizure activity; lower levels of serotonin in scn1lab^−/− head homogenates at 7 dpf; zebrafish express orthologs of human serotonin (5HT) receptor subtypes at 5 dpf; nighttime hyperactivity (5 dpf); in open field-increased thigmotaxis. decreased movement (at 5 dpf); no differences in GABAergic neurons compared to wild type (5 dpf); 5-HT2a (hitr2aa/b) and S-HT2c; (htr2c11) orthologs expressed in larval heads in wild-type and scn1lab−/− mutants and in adult wild-type brains.
To assay the locomotor activity of homozygous scn1Lab−/− mutants and control WT scn1Lab+/+, zebrafish larvae were placed one larva per well in a 96-well plate in 100 μL of embryo medium from 4 to 8 days post-fertilization (dpf). Each day the larvae are tracked in an automated tracking device (ZebraBox™ apparatus; Viewpoint, Lyon, France) for 10 min after 30 min habituation (100-second integration interval). All recordings were performed at the same time during daytime period. The total distance in large movements was recorded and quantified using ZebraLab™ software (Viewpoint, Lyon, France). Data was pooled together from at least three independent experiments with at least 24 larvae per condition.
Scn1Lab^−/− mutants and WT scn1Lab+/+ larvae are arrayed in the same plate and treated at 6 days post fertilization (dpf) with the test compounds (25 μM), or VHC in individual wells of a 96-well plate. After incubation at 28° C. on a 14/10 hour light/dark cycle and 30-min chamber habituation 6 and 7 dpf larvae are tracked for locomotor activity for 10 min (100-second integration interval) under dark conditions. An incubation time of 1.5 hours is further referred to as short treatment (6 dpf). Furthermore, these larvae are analyzed after more than 22 hours incubation (7 dpf), i.e. long treatment. The total locomotor activity is quantified using the parameter lardist and plotted in cm. Data for each compound is pooled together from multiple independent experiments with at least 9 larvae per treatment condition.

[6] = in vivo; cited from earlier work
[7] = tested on: homozygous scn1Lab−/− mutants; test: epileptiform activity, open-field recordings in larval forebrain (LFP assay); assay type: in vivo, zebrafish (Danio rerio)

Structure (SMILES): CCN[C@H](C)Cc1cccc(C(F)(F)F)c1 [(−)-Fenfluramine, (2R)-N-ethyl-1-[3-(trifluoromethyl)phenyl]propan-2-amine]
- effect on PRE-084 efficacy ([1]; 1 mg/kg on effective doses of PRE-084 (0.3-1 mg/kg), FIG. 10 (e, f)): without effect on PRE-084 efficacy
- effect on PRE-084 efficacy ([1]; combined with PRE-084 in dizocilpine-treated mice): without any effect on PRE-084 efficacy
- behavior as S1R antagonist ([1]; mouse, in vivo): does not behave as a S1R antagonist
- PP (%) ([2]; drug alone 0.3 mg/kg IP): 3.2 ± 8.1%
- PP (%) ([2]; drug alone 1 mg/kg IP): 13.8 ± 10.5 ^2%
- PP (%) ([3]; drug alone 0.3 mg/kg IP): 3.9 ± 8.4%
- PP (%) ([3]; drug alone 1 mg/kg IP): 7.3 ± 13.8 ^4%
- maximum tolerated concentration (MTC) [4]: 50 µM
- reduction in seizure behavior [5]: 41%
- mean elimination half-life [6]: 25 h
- anti-epileptiform activity (frequency and cumulative duration of epileptiform events over 10 minutes) ([7]; 50 micromolar, FIGS. 4 and 5): comparable
- LFP Assay ([7]; Table 1, 25, 59 and 100 μM, oral via embryo medium): Also reduces spikes but less; also recorded: Normal dose-response; higher
